One assay deals with Melanocortin receptor 3 (Homo sapiens, UniProt P41968). The assay is classed as cell membranes, Membrane. The conditions noted are these: hek293.
Assay [1] has as its target Beta-1 adrenergic receptor (Homo sapiens, UniProt P08588). Description: DRUGMATRIX: Adrenergic beta1 radioligand binding (ligand: [125I] Cyanopindolol). In kind it is cell membranes, CHO-K1, Membrane. The conditions noted are these: Not Active = under 50% inhibition at 10 µM; for IC50: cho-k1.
A short description of assay [2]: DRUGMATRIX: Calcium Channel Type L, Benzothiazepine radioligand binding (ligand: [3H] Diltiazem). In kind it is cell membranes, Rattus norvegicus, Wistar, Brain, Membrane. The following applies: Not Active = under 50% inhibition at 10 µM.
For assay [3], the target named is T1, Neuropeptide Y receptor type 1 (Homo sapiens, UniProt P25929). Note: in other assays of this panel Not Active means under 50% inhibition at 10 µM.
T1 sequence (P25929 whole entry): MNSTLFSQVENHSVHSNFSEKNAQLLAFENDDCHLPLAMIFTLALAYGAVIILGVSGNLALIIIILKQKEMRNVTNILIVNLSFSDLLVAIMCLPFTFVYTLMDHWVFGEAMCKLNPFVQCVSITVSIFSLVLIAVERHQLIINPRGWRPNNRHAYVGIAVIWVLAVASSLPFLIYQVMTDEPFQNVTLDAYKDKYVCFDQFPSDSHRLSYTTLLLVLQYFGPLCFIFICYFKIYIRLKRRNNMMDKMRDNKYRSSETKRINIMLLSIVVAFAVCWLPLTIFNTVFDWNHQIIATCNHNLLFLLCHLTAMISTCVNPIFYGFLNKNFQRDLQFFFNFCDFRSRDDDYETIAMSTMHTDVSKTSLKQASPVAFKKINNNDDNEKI
The assay is classed as cell membranes, Membrane. The following applies: sk-n-mc.

Assay [4] concerns the target C-C chemokine receptor type 2 (Homo sapiens, UniProt P41597). In kind it is cell membranes, Membrane. The conditions noted are these: cho-k1. Note: in other assays of this panel Not Active means under 50% inhibition at 10 µM.
In assay [5] the target is Prostaglandin G/H synthase 1 (Homo sapiens, UniProt P23219). Description: biochemical. The conditions noted are these: platelet. The assay is classed as tissue-based, Platelet.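 Note: inhibition of COX-1 enzyme activity, with arachidonic acid supplied as substrate; in other assays of this panel Not Active means under 50% inhibition at 10 µM.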
Sequence of Prostaglandin G/H synthase 1 (P23219 whole entry): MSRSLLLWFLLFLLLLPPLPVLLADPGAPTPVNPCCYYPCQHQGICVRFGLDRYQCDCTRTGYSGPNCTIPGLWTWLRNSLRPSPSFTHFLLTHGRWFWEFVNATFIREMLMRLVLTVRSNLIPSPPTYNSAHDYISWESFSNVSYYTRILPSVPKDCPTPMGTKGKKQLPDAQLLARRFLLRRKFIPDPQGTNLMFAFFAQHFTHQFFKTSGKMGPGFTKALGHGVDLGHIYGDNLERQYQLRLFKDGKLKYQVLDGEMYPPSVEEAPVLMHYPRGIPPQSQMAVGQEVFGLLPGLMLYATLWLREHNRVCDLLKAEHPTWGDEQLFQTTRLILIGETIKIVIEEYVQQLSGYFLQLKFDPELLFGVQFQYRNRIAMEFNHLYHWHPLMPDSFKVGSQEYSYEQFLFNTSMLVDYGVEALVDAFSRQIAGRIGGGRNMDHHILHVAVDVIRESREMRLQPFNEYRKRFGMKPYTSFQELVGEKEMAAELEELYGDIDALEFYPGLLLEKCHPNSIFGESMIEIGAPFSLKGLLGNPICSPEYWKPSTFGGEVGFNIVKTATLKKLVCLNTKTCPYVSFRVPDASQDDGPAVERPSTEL

pIC50, pKi: −log10 of the molar value.

Sequence of Beta-1 adrenergic receptor (P08588 whole entry): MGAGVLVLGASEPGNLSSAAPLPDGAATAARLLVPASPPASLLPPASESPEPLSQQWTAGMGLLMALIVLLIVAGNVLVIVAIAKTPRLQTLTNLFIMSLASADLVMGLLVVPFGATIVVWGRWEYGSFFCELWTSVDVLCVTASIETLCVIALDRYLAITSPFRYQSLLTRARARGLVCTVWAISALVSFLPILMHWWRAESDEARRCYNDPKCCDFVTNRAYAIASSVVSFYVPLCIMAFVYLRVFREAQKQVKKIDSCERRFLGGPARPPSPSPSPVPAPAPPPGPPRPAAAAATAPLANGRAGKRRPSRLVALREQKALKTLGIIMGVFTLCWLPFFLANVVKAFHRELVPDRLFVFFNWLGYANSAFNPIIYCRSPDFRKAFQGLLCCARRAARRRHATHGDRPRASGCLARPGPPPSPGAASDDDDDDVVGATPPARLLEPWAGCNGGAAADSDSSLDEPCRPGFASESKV
Sequence of Melanocortin receptor 3 (P41968 whole entry): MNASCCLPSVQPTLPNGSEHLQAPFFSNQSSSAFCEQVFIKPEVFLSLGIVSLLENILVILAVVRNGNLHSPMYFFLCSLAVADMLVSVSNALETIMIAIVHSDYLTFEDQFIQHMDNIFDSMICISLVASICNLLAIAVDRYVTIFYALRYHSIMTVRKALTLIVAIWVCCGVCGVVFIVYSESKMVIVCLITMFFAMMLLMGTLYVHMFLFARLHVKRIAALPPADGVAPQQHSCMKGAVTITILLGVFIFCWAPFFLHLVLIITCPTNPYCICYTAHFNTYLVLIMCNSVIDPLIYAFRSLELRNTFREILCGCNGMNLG
Sequence of C-C chemokine receptor type 2 (P41597 whole entry): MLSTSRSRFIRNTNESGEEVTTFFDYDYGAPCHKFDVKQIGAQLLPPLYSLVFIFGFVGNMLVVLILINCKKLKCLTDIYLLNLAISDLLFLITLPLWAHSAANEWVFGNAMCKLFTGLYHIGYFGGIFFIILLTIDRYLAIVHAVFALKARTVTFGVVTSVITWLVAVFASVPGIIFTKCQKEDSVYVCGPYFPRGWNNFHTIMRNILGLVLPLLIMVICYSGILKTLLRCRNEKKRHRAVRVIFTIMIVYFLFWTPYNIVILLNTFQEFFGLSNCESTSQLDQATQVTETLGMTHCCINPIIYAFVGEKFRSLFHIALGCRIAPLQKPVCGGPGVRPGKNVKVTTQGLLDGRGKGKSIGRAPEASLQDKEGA

Turning to `COc1cc(OC)c(C(=O)CCCN2CCCC2)c(OC)c1` [BUFLOMEDIL], the IC50 entry (against Melanocortin receptor 3; in assay [1]; in assay [2]; in assay [3]; in assay [4]; in assay [5]) was “Not Active” each time. Moreover, the Ki entry in assay [2] was “Not Active”.

As to `Cn1c(=O)c2c(ncn2C)n(C)c1=O` [CAFFEINE], the IC50 result (against Melanocortin receptor 3; in assay [1]; in assay [2]; in assay [3]; in assay [4]; in assay [5]) was “Not Active” in each case. For the same compound, the Ki entry in assay [2] is recorded as “Not Active”.

Consider `ClC(Cl)(Cl)Cl` [CARBON TETRACHLORIDE], for which the IC50 entry (at Melanocortin receptor 3; in assay [1]; in assay [2]; in assay [3]; in assay [4]; in assay [5]) was “Not Active” each time. Also, the Ki result in assay [2] is given as “Not Active”.

Take `CO/N=C(\C(=O)N[C@@H]1C(=O)N2C(C(=O)O)=C(COC(C)=O)CS[C@H]12)c1csc(N)n1` [CEFOTAXIME]: the IC50 entry (at Melanocortin receptor 3; in assay [1]; in assay [2]; in assay [3]; in assay [4]; in assay [5]) was “Not Active” each time. Besides, the Ki entry in assay [2] is reported as “Not Active”.

With `CNC1=Nc2ccc(Cl)cc2C(c2ccccc2)=[N+]([O-])C1` [CHLORDIAZEPOXIDE], the IC50 result (against Melanocortin receptor 3; in assay [1]; in assay [2]; in assay [3]; in assay [4]; in assay [5]) was “Not Active” throughout. In assay [2], the Ki result is listed as “Not Active”.

On to `Cc1cc(O)cc(C)c1Cl` [CHLOROXYLENOL], for which the IC50 result (against Melanocortin receptor 3; in assay [1]; in assay [2]; in assay [3]; in assay [4]; in assay [5]) was “Not Active” in each case. The Ki entry in assay [2] is listed as “Not Active”.

On to `CCCNC(=O)NS(=O)(=O)c1ccc(Cl)cc1` [CHLORPROPAMIDE], for which the IC50 result (against Melanocortin receptor 3; in assay [1]; in assay [2]; in assay [3]; in assay [4]; in assay [5]) was “Not Active” each time. In addition, the Ki entry in assay [2] is listed as “Not Active”.

`NS(=O)(=O)c1cc(C2(O)NC(=O)c3ccccc32)ccc1Cl` (stereo unspecified) [CHLORTHALIDONE]: the IC50 result (against Melanocortin receptor 3; in assay [1]; in assay [2]; in assay [3]; in assay [4]; in assay [5]) was “Not Active” throughout. For the same compound, in assay [2], the Ki entry was “Not Active”.

`CC(C)NCC(O)c1ccccc1Cl` (stereo unspecified) [CLORPRENALINE]: the IC50 result (against Melanocortin receptor 3; in assay [2]; in assay [3]; in assay [4]; in assay [5]) was “Not Active” in each case. For the same compound, the pIC50 in assay [1] (read-out: IC50) was 5.59. In addition, the pKi in assay [1] (read-out: Ki) is 5.82. Besides, the Ki entry in assay [2] was “Not Active”.

Consider `CN1CCN(C(c2ccccc2)c2ccccc2)CC1` [CYCLIZINE], for which the IC50 result (against Melanocortin receptor 3; in assay [1]; in assay [3]; in assay [4]; in assay [5]) was “Not Active” throughout. In addition, in assay [2] (read-out: IC50), the pIC50 was 5.60. In addition, the pKi in assay [2] (read-out: Ki) is 5.65.

As for `CN1C[C@@H]2C[C@H]1CN2c1cc2c(cc1F)c(=O)c(C(=O)O)cn2C1CC1` [DANOFLOXACIN], the IC50 entry (at Melanocortin receptor 3; in assay [1]; in assay [2]; in assay [3]; in assay [4]; in assay [5]) was “Not Active” in each case. The Ki entry in assay [2] is listed as “Not Active”.

Consider `COc1cccc2c1C(=O)c1c(O)c3c(c(O)c1C2=O)C[C@@](O)(C(C)=O)C[C@@H]3O[C@H]1C[C@H](N)[C@H](O)[C@H](C)O1` [DAUNORUBICIN], for which the IC50 entry (at Melanocortin receptor 3; in assay [1]; in assay [2]; in assay [3]; in assay [4]; in assay [5]) was “Not Active” throughout. The Ki entry in assay [2] is on record as “Not Active”.

Take `O=C(O)c1cc(-c2ccc(F)cc2F)ccc1O` [DIFLUNISAL]: the IC50 result (against Melanocortin receptor 3; in assay [1]; in assay [2]; in assay [4]; in assay [5]) was “Not Active” throughout. Also, the Ki entry in assay [2] and in assay [3] was “Not Active” in each case.

Turning to `C[S+](C)[O-]` [DIMETHYL SULFOXIDE], the IC50 result (against Melanocortin receptor 3; in assay [1]; in assay [2]; in assay [3]; in assay [4]; in assay [5]) was “Not Active” in each case. In addition, the Ki entry in assay [2] is reported as “Not Active”.

In the case of `CC1=NN(c2ccccc2)C(=O)C1` [EDARAVONE], the IC50 result (on Melanocortin receptor 3; in assay [1]; in assay [2]; in assay [3]; in assay [4]; in assay [5]) was “Not Active” each time. Moreover, the Ki result in assay [2] is on record as “Not Active”.

On to `CC(C)C[C@H]1C(=O)N2CCC[C@H]2[C@]2(O)O[C@](NC(=O)[C@@H]3C=C4c5cccc6[nH]cc(c56)C[C@H]4N(C)C3)(C(C)C)C(=O)N12` [ERGOCRYPTINE], for which the IC50 entry (at Melanocortin receptor 3; in assay [1]; in assay [2]; in assay [3]; in assay [4]; in assay [5]) was “Not Active” throughout. In addition, in assay [2], the Ki result is on record as “Not Active”.

In the case of `C[C@]12CC[C@@H]3c4ccc(O)cc4CC[C@H]3[C@@H]1C[C@@H](O)[C@@H]2O` [ESTRIOL], the IC50 entry (against Melanocortin receptor 3; in assay [1]; in assay [2]; in assay [3]; in assay [4]; in assay [5]) was “Not Active” each time. Moreover, the Ki result in assay [2] is “Not Active”.

Turning to `C#C[C@]1(O)CC[C@H]2[C@@H]3CCC4=CC(=O)CC[C@]4(C)[C@H]3CC[C@@]21C` [ETHISTERONE], the IC50 result (on Melanocortin receptor 3; in assay [1]; in assay [2]; in assay [3]; in assay [4]; in assay [5]) was “Not Active” throughout. Moreover, the Ki result in assay [2] is reported as “Not Active”.

On to `CC(O)(P(=O)(O)O)P(=O)(O)O` [ETIDRONIC ACID], for which the IC50 result (against Melanocortin receptor 3; in assay [1]; in assay [2]; in assay [3]; in assay [4]; in assay [5]) was “Not Active” throughout. Also, the Ki entry in assay [2] is reported as “Not Active”.

In the case of `CC(C)(C(=O)O)c1ccc(C(O)CCCN2CCC(C(O)(c3ccccc3)c3ccccc3)CC2)cc1` (stereo unspecified) [FEXOFENADINE], the IC50 entry (against Melanocortin receptor 3; in assay [1]; in assay [2]; in assay [3]; in assay [4]; in assay [5]) was “Not Active” each time. Also, in assay [2], the Ki entry was “Not Active”.

In the case of `CN1CCN(c2c(F)cc3c(=O)c(C(=O)O)cn(CCF)c3c2F)CC1` [FLEROXACIN], the IC50 entry (at Melanocortin receptor 3; in assay [1]; in assay [2]; in assay [3]; in assay [4]; in assay [5]) was “Not Active” each time. Also, in assay [2], the Ki result is recorded as “Not Active”.

As for `O=c1[nH]c(=O)n([C@H]2C[C@H](O)[C@@H](CO)O2)cc1F` [FLOXURIDINE], the IC50 result (at Melanocortin receptor 3; in assay [1]; in assay [2]; in assay [3]; in assay [4]; in assay [5]) was “Not Active” each time. For the same compound, the Ki entry in assay [2] was “Not Active”.

Take `COC(=O)Nc1nc2cc(C(=O)c3ccc(F)cc3)ccc2[nH]1` [FLUBENDAZOLE]: the IC50 entry (against Melanocortin receptor 3; in assay [1]; in assay [2]; in assay [3]; in assay [4]; in assay [5]) was “Not Active” in each case. Moreover, the Ki entry in assay [2] is “Not Active”.

Take `CC(=O)OCC(=O)[C@@]1(O)CC[C@H]2[C@@H]3CCC4=CC(=O)CC[C@]4(C)[C@@]3(F)[C@@H](O)C[C@@]21C` [FLUDROCORTISONE ACETATE]: the IC50 entry (at Melanocortin receptor 3; in assay [1]; in assay [2]; in assay [3]; in assay [4]; in assay [5]) was “Not Active” throughout. The Ki result in assay [2] is “Not Active”.

On to `CCOC(=O)c1ncn2c1CN(C)C(=O)c1cc(F)ccc1-2` [FLUMAZENIL], for which the IC50 result (at Melanocortin receptor 3; in assay [1]; in assay [2]; in assay [3]; in assay [4]; in assay [5]) was “Not Active” throughout. The Ki entry in assay [2] is “Not Active”.

Source of the values: ChEMBL document CHEMBL1909046, “DrugMatrix in vitro pharmacology data”.
